Values of other authors, collected in patent publication US10881127B1, “Manufacturing method of water-solubilized solution of mastic resin” (VENN SKINCARE, INC., priority 2019, dated 2021).

Conditions: in room temperature or in water

- stability of L-ascorbic acid: easily oxidized and broken
SMILES: O=C1O[C@H]([C@@H](O)CO)C(O)=C1O [L-ascorbic acid]
